Measured values: patent publication US8198267B2, “Substituted oxazolidinones and their use” (Bayer Intellectual Property GmbH, priority 2007, dated 2012)

Tests used:
factor Xa = molecular target: T1, factor Xa (Homo sapiens, UniProt P00742); assay: Factor Xa-inhibitory activity of the potential inhibitors in plasma samples; assay type: biochemical; settings: citrate plasma (Octapharma); factor X activated by rattlesnake toxin (RVV); ChromozymX chromogenic substrate, 405 nm
T1 construct: tissue Octapharma; host or cells: citrate plasma
Protocol: a.4) Determination of the Factor Xa-Inhibitory Activity of the Potential Inhibitors in Plasma Samples
To determine the inhibition of factor Xa in plasma samples, the factor X present in plasma is activated by a protease from rattlesnake toxin. The factor Xa activity or its inhibition by potential inhibitors is then measured by addition of a chromogenic substrate.
Various concentrations of the substances to be tested are dissolved in dimethyl sulfoxide and diluted with an aqueous refludan solution (10 μg/ml). In clear 96-well plates having a flat bottom, 30 μl of citrate plasma (Octapharma) are mixed with 10 μl of the substance dilution. Then, either 20 μl of a solution of a rattlesnake toxin (Russel viper venom (RVV); RVV reagent: Pentapharm 121-06, final concentration 0.6 mU) in an aqueous calcium chloride solution buffer (final concentration of calcium chloride 0.05 M) or 20 μl of the aqueous calcium chloride solution (final concentration of calcium chloride 0.05 M) without RVV reagent (as reference for an unstimulated sample) are added. After addition of 20 μl of ChromozymX substrate (final concentration 1.6 mmol/l, Bachem L-1565, diluted in water) the samples are measured in a SpectraFluor Reader using a measurement filter of 405 nm each minute over a period of 20 minutes. The IC50 value is determined when about 70% of the maximum signal is reached (about 12 min).

thrombin = thrombin (Homo sapiens, UniProt P00734); assay: Thrombin-inhibitory activity of the potential inhibitors in plasma samples; assay type: biochemical; settings: citrate plasma (Octapharma); ecarin stimulation; fluorogenic thrombin substrate, 360/465 nm
Protocol: a.5) Determination of the Thrombin-Inhibitory Activity of the Potential Inhibitors in Plasma Samples
Various concentrations of the substances to be tested are dissolved in dimethyl sulfoxide and diluted with water.

T1 sequence (P00742 235-488 limits assumed): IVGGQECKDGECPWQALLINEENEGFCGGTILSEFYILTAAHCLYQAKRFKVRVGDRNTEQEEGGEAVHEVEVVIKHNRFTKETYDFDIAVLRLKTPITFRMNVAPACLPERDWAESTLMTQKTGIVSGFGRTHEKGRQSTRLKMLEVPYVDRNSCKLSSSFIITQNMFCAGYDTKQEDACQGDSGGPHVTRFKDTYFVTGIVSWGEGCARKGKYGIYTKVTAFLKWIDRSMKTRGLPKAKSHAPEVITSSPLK
T1 sequence (P00742 41-179 limits assumed): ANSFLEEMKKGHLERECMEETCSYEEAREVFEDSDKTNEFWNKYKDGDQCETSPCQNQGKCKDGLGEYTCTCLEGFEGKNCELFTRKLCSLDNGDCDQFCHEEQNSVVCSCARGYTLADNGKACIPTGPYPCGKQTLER

SMILES | IC50 (thrombin) [nM] | IC50 (factor Xa) [nM]
COCc1cc(N2C[C@H](CNC(=O)c3ccc(Cl)s3)OC2=O)ccc1N1CCCCC1=O [Example 27, 5-Chloro-N-({(5S)-3-[3-(methoxymethyl)-4-(2-oxopiperidin-1-yl)phenyl]-2-oxo-1,3-oxazolidin-5-yl}methyl)thiophene-2-carboxamide] | 54 | 39
O=C(NC[C@H]1CN(c2ccc(N3CCCN(CCO)C3=O)c(C(F)(F)F)c2)C(=O)O1)c1ccc(Cl)s1 [Example 38, 5-Chloro-N-{[(5S)-3-{4-[3-(2-hydroxyethyl)-2-oxotetrahydropyrimidin-1(2H)-yl]-3-(trifluoro-methyl)phenyl}-2-oxo-1,3-oxazolidin-5-yl]methyl}thiophene-2-carboxamide] |  | 252
Cc1cc(N2C[C@H](CNC(=O)c3ccc(Cl)s3)OC2=O)cc(C)c1-n1cccc(OCCO)c1=O [Example 16, 5-Chloro-N-{[(5S)-3-{4-[3-(2-hydroxyethoxy)-2-oxopyridin-1(2H)-yl]-3,5-dimethylphenyl}-2-oxo-1,3-oxazolidin-5-yl]methyl}thiophene-2-carboxamide] | 14 | 213
COc1cc(N2C[C@H](CNC(=O)c3ccc(Cl)s3)OC2=O)ccc1N1CCCN(C)C1=O [Example 35, 5-Chloro-N-({(5S)-3-[3-methoxy-4-(3-methyl-2-oxotetrahydropyrimidin-1(2H)-yl)phenyl]-2-oxo-1,3-oxazolidin-5-yl}methyl)thiophene-2-carboxamide] | 390 | 552
O=C(NC[C@H]1CN(c2ccc(N3CCOCCC3=O)c(C3CC3)c2)C(=O)O1)c1ccc(Cl)s1 [Example 30, 5-Chloro-N-({(5S)-3-[3-cyclopropyl-4-(5-oxo-1,4-oxazepan-4-yl)phenyl]-2-oxo-1,3-oxazolidin-5-yl}methyl)thiophene-2-carboxamide] | 34 | 25
CC(C)c1cc(N2C[C@H](CNC(=O)c3ccc(Cl)s3)OC2=O)ccc1N1CCCNC1=O [Example 32, 5-Chloro-N-({(5S)-3-[3-isopropyl-4-(2-oxotetrahydropyrimidin-1(2H)-yl)phenyl]-2-oxo-1,3-oxazolidin-5-yl}methyl)thiophene-2-carboxamide] | 151 | 70
CCCc1cc(N2C[C@H](CNC(=O)c3ccc(Cl)s3)OC2=O)ccc1-n1ccccc1=O [Example 19] | 8 | 361

Further lines, with some results ahead:

IC50 (thrombin) [nM] | SMILES | IC50 (factor Xa) [nM]
286 | CCOc1cccn(-c2ccc(N3C[C@H](CNC(=O)c4ccc(Cl)s4)OC3=O)cc2C)c1=O [Example 4, 5-Chloro-N-({(5S)-3-[4-(3-ethoxy-2-oxopyridin-1(2H)-yl)-3-methylphenyl]-2-oxo-1,3-oxazolidin-5-yl}methyl)thiophene-2-carboxamide] | 201
502 | CCOc1nccn(-c2ccc(N3C[C@H](CNC(=O)c4ccc(Cl)s4)OC3=O)cc2C)c1=O [Example 18, 5-Chloro-N-({(5S)-3-[4-(3-ethoxy-2-oxopyrazin-1(2H)-yl)-3-methylphenyl]-2-oxo-1,3-oxazolidin-5-yl}methyl)thiophene-2-carboxamide] | 319
247 | Cc1cc(N2C[C@H](CNC(=O)c3ccc(Cl)s3)OC2=O)ccc1-n1cccc(OCC(C)(C)O)c1=O [Example 9, 5-Chloro-N-[((5S)-3-{4-[3-(2-hydroxy-2-methylpropoxy)-2-oxopyridin-1(2H)-yl]-3-methylphenyl}-2-oxo-1,3-oxazolidin-5-yl)methyl]thiophene-2-carboxamide] | 149
277 | CC(=O)COc1cccn(-c2ccc(N3C[C@H](CNC(=O)c4ccc(Cl)s4)OC3=O)cc2C)c1=O [Example 7, 5-Chloro-N-[((5S)-3-{3-methyl-4-[2-oxo-3-(2-oxopropoxy)pyridin-1(2H)-yl]phenyl}-2-oxo-1,3-oxazolidin-5-yl)methyl]thiophene-2-carboxamide] | 206
